Source: US20230278972A1, “SUBSTITUTED HALOALKYL SULFONANILIDE HERBICIDES” (FMC Corporation, priority 2020, published 2023)

Assays:
Type in all cases: in vivo
[1] = tested on: Pigweed, Palmer (palmer amaranth, palmer pigweed, Amaranthus palmeri); test: Test A1 postemergence, Pigweed, Palmer; details: for Pigweed, Palmer plant response rating: 31 g ai/ha, postemergence; for Plant response rating, Pigweed, Palmer: Postemergence
Method in brief: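 Plants grown in pots of loam/sand mix; preemergence = soil-directed spray on seeded pots, postemergence = spray at 1–2 leaves, height 2–10 cm; test chemicals formulated in non-phytotoxic solvent with surfactant.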

[2] = tested on: Foxtail, Giant (giant foxtail, Setaria faberi); test: Test A1 preemergence, Foxtail, Giant
Method in brief: (§1)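 Seeds were first planted into a blend of loam soil and sand and given a preemergence directed soil spray. In parallel, pots of the same soil were sown for postemergence application once plants reached 2 to 10 cm and the one- to two-leaf stage. Both used surfactant-containing non-phytotoxic solvent formulations.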

[3] = tested on: Ryegrass, Italian (Italian ryegrass, Lolium multiflorum); test: Test A1 postemergence, Ryegrass, Italian; details: for Ryegrass, Italian plant response rating: 31 g ai/ha, postemergence; for Plant response rating, Ryegrass, Italian: Postemergence
Method in brief: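 Herbicidal response was scored on plants treated either preemergence, by directed spray onto soil of a loam–sand blend after sowing, or postemergence on potted plants at the one- to two-leaf stage, 2–10 cm high. Test chemicals were carried in a non-phytotoxic solvent mix with surfactant.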

[4] = tested on: Ryegrass, Italian (Italian ryegrass, Lolium multiflorum); test: Test A1 preemergence, Ryegrass, Italian
Method in brief: as §1

[5] = tested on: ducksalad (Heteranthera limosa); test: Test B1 flooded paddy test, ducksalad; details: 250 g ai/ha, Flood, applied to paddy water, 2-leaf stage, visually evaluated after 10 to 14 days
Source text: A dash (-) response means no test result.

[6] = 0 to 100 scale (0 no effect, 100 complete control)
[7] = 31 g ai/ha, 0 to 100 scale (0 no effect, 100 complete control)
[8] = 125 g ai/ha, 0 to 100 scale, 0 no effect, 100 complete control
[9] = 125 g ai/ha, 0 to 100 scale (0 no effect, 100 complete control), 10 days
[10] = 500 g ai/ha, 0 to 100 scale (0 no effect, 100 complete control)
[11] = 125 g ai/ha, 0 to 100 scale (0 no effect, 100 complete control)

| SMILES | Pigweed, Palmer plant response rating [1, 6] | Plant response rating, Pigweed, Palmer ([1]; 125 g ai/ha, 0 to 100 scale) | Plant response rating, Foxtail, Giant [2, 7] | Plant response rating, Foxtail, Giant [2, 8] | Ryegrass, Italian plant response rating [3, 6] | Plant response rating, Ryegrass, Italian ([3]; 125 g ai/ha, 0 to 100 scale) | Plant response rating, Ryegrass, Italian [4, 7] | Plant response rating, Ryegrass, Italian [4, 8] | Plant response rating, Ducksalad (0 to 100 scale, 0 is no effect, 100 is complete control) [5] | Plant response rating, Pigweed, Palmer [1, 9] | Plant response rating, Ryegrass, Italian [3, 9] | Plant response rating, Pigweed, Palmer ([1]; 500 g ai/ha, 0 to 100 scale) | Plant response rating, Foxtail, Giant [2, 10] | Plant response rating, Ryegrass, Italian ([3]; 500 g ai/ha, 0 to 100 scale) | Plant response rating, Ryegrass, Italian [4, 10] | Plant response rating, Foxtail, Giant [2, 11] | Plant response rating, Ryegrass, Italian [4, 11] |
| --- | --- | --- | --- | --- | --- | --- | --- | --- | --- | --- | --- | --- | --- | --- | --- | --- | --- |
| CCOC(=O)N(c1cc(C(=O)N2C[C@@H](C)O[C@H](C)C2)c(C)c(C)c1C)S(=O)(=O)C(F)(F)F (relative stereo) [Compound 374] | 10 | 30 | 50 | 100 | 0 | 50 | 0 | 90 | 85 | – | – | – | – | – | – | – | – |
| Cc1ccc(C2=NOC3CCCC23)cc1NS(=O)(=O)C(F)(F)F (centres unmarked) [Compound 377] | 0 | 0 | 0 | 0 | 0 | 0 | 0 | 40 | 15 | – | – | – | – | – | – | – | – |
| CCc1cc(C)c(N(COC(=O)C(C)(C)C)S(=O)(=O)C(F)(F)F)cc1C1=NOC2CCCC12 (centres unmarked) [Compound 378] | 0 | 10 | 0 | 20 | 0 | 0 | 0 | 40 | 20 | – | – | – | – | – | – | – | – |
| Cc1c(NS(=O)(=O)C(F)(F)F)cc(C2=NOC3(CCCC3)C2)c(C)c1C [Compound 380] | 0 | – | 80 | 100 | 0 | – | 60 | 100 | 70 | 10 | 60 | – | – | – | – | – | – |
| Cc1cc(C)c(C2=NOC(C(C)C)C2)cc1NS(=O)(=O)C(F)(F)F (centres unmarked) [Compound 381] | 0 | – | 20 | 100 | 0 | – | 50 | 90 | 50 | 10 | 0 | – | – | – | – | – | – |
| Cc1c(C2=NOC3(CCCC3)C2)cc(N(COC(=O)C(C)(C)C)S(=O)(=O)C(F)(F)F)c(C)c1C [Compound 382] | 0 | – | 0 | 30 | 0 | – | 30 | 50 | 25 | 20 | 0 | – | – | – | – | – | – |
| Cc1cc(Cl)c(NS(=O)(=O)C(F)(F)F)cc1N1CCC2(CCCCC2)C1=O [Compound 393] | 0 | – | 70 | 100 | 30 | – | 90 | 100 | 95 | 80 | 50 | – | – | – | – | – | – |
| Cc1cc(C)c(N(COC(=O)C(C)(C)C)S(=O)(=O)C(F)(F)F)cc1N1CCC2(CCC(F)(F)CC2)C1=O [Compound 397] | – | – | – | 100 | – | – | – | 100 | 75 | 80 | 50 | 100 | 100 | 80 | 100 | – | – |
| COC1CCC2(CC1)CCN(c1cc(NS(=O)(=O)C(F)(F)F)c(C)cc1C)C2=O (centres unmarked) [Compound 398] | 50 | – | 90 | 100 | 50 | – | 60 | 100 | 95 | 80 | 90 | – | – | – | – | – | – |
| Cc1cc(C)c(N(S(=O)(=O)C(F)(F)F)S(=O)(=O)C(F)(F)F)cc1N1CCC2(CCC(C(F)(F)F)CC2)C1=O (centres unmarked) [Compound 399] | 30 | – | 10 | 90 | 0 | – | 40 | 90 | 75 | 70 | 70 | – | – | – | – | – | – |
| Cc1cc(C)c(N2CCC3(CCC(C(F)(F)F)CC3)C2=O)cc1NS(=O)(=O)C(F)(F)F (centres unmarked) [Compound 400] | 20 | – | 20 | 90 | 0 | – | 60 | 90 | 55 | 70 | 0 | – | – | – | – | – | – |
| Cc1cc(C)c(N(COC(=O)C(C)(C)C)S(=O)(=O)C(F)(F)F)cc1N1CCC2(CCC(C)CC2)C1=O (centres unmarked) [Compound 401] | 0 | – | 0 | 0 | 0 | – | 0 | 30 | 45 | 30 | 0 | – | – | – | – | – | – |
| Cc1cc(C)c(N2CCC3(CCC(C)CC3)C2=O)cc1NS(=O)(=O)C(F)(F)F (centres unmarked) [Compound 402] | 20 | – | 90 | 100 | 0 | – | 90 | 100 | 45 | 70 | 0 | – | – | – | – | – | – |
| Cc1cc(C)c(N(COC(=O)C(C)(C)C)S(=O)(=O)C(F)(F)F)cc1N1CCC2(CCC(C(F)(F)F)CC2)C1=O (centres unmarked) [Compound 403] | 0 | – | 0 | 10 | 0 | – | 30 | 30 | 15 | 30 | 0 | – | – | – | – | – | – |
| CCOc1cccc2c1C(=O)N(c1cc(N(COC(=O)C(C)(C)C)S(=O)(=O)Cl)c(C)cc1C)C2 [Compound 414] | 0 | – | 0 | – | 0 | – | – | – | 40 | 10 | 0 | – | – | – | – | 0 | 30 |
